Results: patent US20120021077A1, “SYNERGISTIC HERBAL COMPOSITION FOR TREATMENT OF RHEUMATIC AND MUSCULO-SKELETAL DISORDERS (RMSDS)” (priority 2007, published 2012)
Like-named read-outs stand apart in the source and are kept apart here.

Legend:
[1] = tested on: Acetic acid induced writhing in mice; assay: Acetic acid induced writhing (peripheral analgesic model); format: in vivo, albino mice
Method: (§1) Analgesic and anti-inflammatory activity studies for crude drug powders or extracts and formulations there off were carried out in known animal models. Central (formalin-induced model) and peripheral (acetic acid induced model) analgesic activities were studied in albino mice, while wistar rats were used for acute (carrageenan induced paw edema model) and sub-acute (turpentine oil-induced granuloma pouch model) anti-inflammatory activity. Suitable positive and negative controls were used for the studies. The data obtained is statistically significant (P value<0.05) and reproducible.
The total number of writhings following intra-peritoneal administration of 0.6% acetic acid, 10 ml/Kg body weight was recorded for 20 minutes, starting 10 minutes after injection. The animals were pre-treated with test samples (100, 200 and 400 mg/Kg p.o.) 30 minutes prior to above treatment, simultaneously using Aspirin (30 mg/kg p.o.) as a positive control.

[2] = tested on: Carrageenan induced rat paw edema; assay: Carrageenan induced rat paw edema (acute anti-inflammatory); format: in vivo, wistar rats; conditions: anti-inflammatory studies, model not specified
Method: as §1
Various doses of test sample (100, 200 and 400 mg/Kg p.o.) and standard Indomethacin (10 mg/kg p.o.) were administered to different groups of rats. Acute inflammation was induced half an hour after the above treatment by injection of 0.1 ml of freshly prepared 1% (in water) suspension of Carrageenan sodium in sub-planter region of rat right hind paw. Paw volume was measured by plethysmographic method initially and then at 1, 2, 3, 4, 24, 48 and 72 hrs after carrageenan injection.

[3] = tested on: human OA cartilage explants; assay: Glycosaminoglycan (GAG) release from human OA cartilage explants; format: cell-based; conditions: for Percent control GAG release: control = 100%
Method: Aqueous extracts of each capsule were freshly prepared as required. Contents of each capsule were solubilized in distilled water (10 mG/mL) by limited autoclaving. Each extract was filter sterilized prior to addition to cartilage explants at the required final concentration. This method of herbal extract preparation gave reproducible sterility and biological activity (Sumantran et al, 2007).
Patients (age 55-75 years) suffered from chronic osteoarthritis (OA) for 5-15 years prior to knee replacement surgery. Cartilage integrity was recorded by macroscopic and microscopic examination, using the Outerbridge scale. Only non-calcified, grade 1-2 articular cartilage from the lateral femoral condyles was used (Outerbridge 1961).
OA cartilage explants were cultured as described earlier (Sumantran et al, 2007). Briefly, explants were treated for 24 hours with/without sterile aqueous extracts of each capsule, and re-fed with growth media without herbal extract every two days for eight days. Conditioned media (CM) samples from each explant were collected prior to each re-feed. All CM samples per OA patient were thawed and assayed for GAG and NO levels simultaneously. Aggrecan assays were done after analysis of the GAG release data.
Total GAG levels in CM samples were measured by the dimethylmethylene blue assay using Chondroitin sulphate as a standard (Hoemann et al, 2002). NO levels in CM samples were estimated using the Griess reagent.
GAG content is expressed as microgram equivalents of Chondroitin sulphate. NO is expressed in micromoles/mG of explant/mL of CM. Units of Aggrecan are micrograms/mG of explant/mL of CM. Each marker is measured at each time point for each CM sample derived from each patient.
Levels of GAG, NO, or aggrecan levels in CM samples from explants at each time, point, per patient, treated with/without drug; were tested for statistical significance at the 95% confidence level using the Students 2 tailed t-test for paired samples. We calculated the effect of drug extracts in each CM sample, at each time point, per patient sample; using the ratio shown below:
Long-term versus Short-term activity: Long-term chondroprotective or anti-inflammatory activity is the ability of a drug to cause a statistically significant decrease in levels of GAG, aggrecan, or NO release by OA cartilage explants, relative to controls. This effect must be observed for at least 3 of the 4 time points during in vitro culture. Short-term activity is similar, but is detected at only 1 or 2 of the 4 time points tested.
In explant model of OA cartilage damage, GAG released by cartilage explants for 5 time points after a 24 hour drug treatment was measured. The effect on GAG release from cartilage explants of six OA patients treated with/without aqueous extracts of formulations C and C+G (100 microg/mLeach) was studied. […] Glucosamine and celecoxib each caused a statistically significant, 25% decrease in GAG release at time point 4, compared to controls.

symptomatic OA knees = assay: Phase II 24-week comparator controlled trial of equivalence; format: in vivo, patients; set-up: W_DIFF, mean change between baseline and completion (Mean ± SD) / W_TOTAL, mean change between baseline and completion (Mean ± SD) / W_PAIN, mean change between baseline and completion (Mean ± SD) / W_STIFF, mean change between baseline and completion (Mean ± SD): scale not given here; conditions: 24 weeks
Description: • Phase II, Randomized, double blind, comparator (Celecoxib & Glucosamine) controlled, multicentric trial of equivalence. • Study Duration-24 weeks • Sample size (statistically powered 80% with α<0.05)—440 patients with symptomatic OA knees • 4 arm-2 Ayurvedic Interventions (C, C+) Celecoxib & Glucosamine, parallel efficacy study • 110 patients in each arm • No rescue medication permitted

[4] = tested on: human OA cartilage explants; assay: Aggrecan release from human OA cartilage explants; format: cell-based
Description: The kit uses a mixture of monoclonal antibodies to different epitopes of aggrecan, thereby ensuring sensitive and rapid estimation of aggrecan.

OA cartilage explants = assay: Nitric oxide (NO) release by OA cartilage explants; format: cell-based, human
[5] = tested on: symptomatic knee osteoarthritis; assay: 16-week randomized double blind placebo and comparator controlled trial (NMITLI OA stage I/2); format: in vivo, patients
Method: NMITLI OA stage I/2: The said formulation was evaluated in a randomized double blind placebo controlled, multicentric 16 week clinical trial in 245 patients with symptomatic knee osteoarthritis. This was This was a 7 arm exploratory study, aimed to evaluate the efficacy and safety of 5 multiplant formulations using Shunthi-Guduchi as a common platform formulation in all. Glucosamine was the positive comparator.
Glucosamine was the positive comparator in this study.
The clinical trials are conducted on the following basis: • Randomized, Double Blind, parallel efficacy, Placebo & Comparator controlled study • 245 patients in a 7 arm (5 ayurvedic arms coded as A-E, placebo-1, Glucosamine-1) study of 16 weeks duration. • 35 patients in each arm • Monitored pain rescue medication (oral paracetamol) permitted on SOS basis • Intent to treat analysis with last observation carried forward • All arms well-matched at baseline for demographics and efficacy.

[6] = tested on: active Rheumatoid arthritis (RA); assay: NMITLI RA stage I/1, 24-week study; format: in vivo, patients; conditions: week 24
Description: NMITLI RA STAGE I/1: A randomized double blind comparator controlled parallel efficacy multicentric 24-week study in patients with active Rheumatoid arthritis (RA). In this study, formulation B and a proprietary ayurvedic formulation were compared to Hydroxychloroquine (HCQS), which is a popular DMARD (Disease Modifying Anti Rheumatoid Drug) in modern medicine rheumatology. As a complex painful inflammatory polyarticular disease, several efficacy variables, both clinical and laboratory were used to evaluate efficacy—Joint Counts for pain/tenderness and swelling, pain VAS, Patients Global assessments by the patient and physician, Health Assessment Questionnaire (a validated instrument for functional ability for Indian use), ESR, CRP and cytokines markers.
At baseline, all the groups were matched well in several demographic and efficacy measures. […] The overall safety of Ayurvedic formulations was better than HCQS.

[7] = tested on: arachidonic acid (AA) induced platelet activation in human whole blood; conditions: read-out: anti-platelet activity IC(50); cited from earlier work
mouse bone marrow = conditions: test drugs 2000 mg/kg oral; cyclophosphamide 75 mg/kg i.p.
Method: Assessment of genotoxicity using mouse bone marrow micronucleus test and Salmonella reverse mutation test was carried out according to OECD guidelines No. 474 and 471 respectively.
Genotoxicity study was carried out using mammalian bone marrow micronucleus test with the limit test at a single dose level of 2000 mg/kg body weight. The test drug was suspended in 1% CMC (carboxy methyl cellulose) and administered orally to the experimental animals. Control animals received 1% CMC alone. […] Treatment was given for two consecutive days at 0 h and 24 h. […] All the mice were sacrificed at 6th hr. after the last treatment (30th hr. after first dose) and femur bones were excised and bone marrow contents were flushed with fetal calf serum. Bone marrow cells were centrifuged spread as a smear on glass slide and stained using Giemsa stain and May-Grunwald stain. […] Minimum 2000 PCEs were scored from each animal. All the slides were coded prior to scoring and decoded after completion of scoring.

[8] = time point 3, controls set at 100%
[9] = time point 4, controls set at 100%

Cc1ccc(-c2cc(C(F)(F)F)nn2-c2ccc(S(N)(=O)=O)cc2)cc1 [Celecoxib]
dose with significant peripheral analgesic activity [1]: 400 mg/kg | minimum dose with significant anti-inflammatory activity [2]: 200 mg/kg | Percent control GAG release ([3]; time point 1, 100 microg/mL): 90.24 ± 25.71% | Percent control GAG release ([3]; time point 2, 100 microg/mL): 84.87 ± 28.54% | Percent control GAG release ([3]; time point 3, 100 microg/mL): 87.83 ± 28.99% | decrease in GAG release compared to controls ([3]; time point 4): 25% | Percent control GAG release ([3]; time point 4, 100 microg/mL): 74.81 ± 31.83% | Percent control GAG release ([3]; time point 5, 100 microg/mL): 89.42 ± 31.98% | PainVAS, mean change between baseline and completion (Mean ± SD) (symptomatic OA knees): −1.82 ± 1.95 | W_DIFF, mean change between baseline and completion (Mean ± SD) (symptomatic OA knees): −6.93 ± 9.88 | W_PAIN, mean change between baseline and completion (Mean ± SD) (symptomatic OA knees): −1.89 ± 3.01 | W_STIFF, mean change between baseline and completion (Mean ± SD) (symptomatic OA knees): −0.34 ± 1.91 | W_TOTAL, mean change between baseline and completion (Mean ± SD) (symptomatic OA knees): −9.17 ± 13.05

N[C@H]1C(O)O[C@H](CO)[C@@H](O)[C@@H]1O (stereo partly drawn) [Glucosamine]
dose with significant peripheral analgesic activity [1]: 400 mg/kg | minimum dose with significant anti-inflammatory activity [2]: devoid of any anti-inflammatory activity | Glycosaminoglyan (GAG) release, decrease ([3]; long term = at least 3 of 4 time points, short term = 1 or 2): Short term | Percent control GAG release ([3]; time point 1, 100 microg/mL): 118.96 ± 34.74% | Percent control GAG release ([3]; time point 2, 100 microg/mL): 91.70 ± 16.55% | mean decrease of GAGs release relative to control explants ([3]; time point 3): 26% | Percent control GAG release ([3]; time point 3, 100 microg/mL): 86.52 ± 19.36% | mean decrease in levels of GAG and aggrecan release relative to controls ([3]; time point 3, both markers): 25-35% | levels of GAG released compared to controls (FIG. 1) [3, 8]: 73.72±9.69% | decrease in GAG release compared to controls ([3]; time point 4): 25% | mean decrease of GAGs release relative to control explants ([3]; time point 4): 20% | Percent control GAG release ([3]; time point 4, 100 microg/mL): 76.01 ± 19.96% | levels of GAG released compared to controls (FIG. 2) [3, 9]: 81.38±14.35% | Percent control GAG release ([3]; time point 5, 100 microg/mL): 87.15 ± 20.83% | Aggrecan (AGG) release, decrease [4]: Significant | mean decrease of Aggrecan release relative to control explants ([4]; time point 3): 34% | levels of aggrecan released compared to controls (FIG. 1) [4, 8]: 66.13±21.81% | Aggrecan release by cartilage explants ([4]; time point 4, 5 patients): not significantly decreased | levels of aggrecan released compared to controls (FIG. 2) [4, 9]: 86.07±21.71% | Nitric oxide (NO) release, decrease (OA cartilage explants): No significant | Nitric oxide (NO) release, decrease (OA cartilage explants; listed as gulosamine): did not significantly decrease | Daily consumption Paracetamol, Mean, AVR_TOTAL ([5]; all visits): 1.7950 | PATG (1-5 grades), baseline mean ([5]; baseline): 3.52 grades | PainVAS (0-100 mm), baseline mean ([5]; baseline): 64.8 mm | WOMAC Pain (0-20 score), baseline mean ([5]; baseline): 8.0 score | PATG, mean of percent change from baseline ([5]; over 16 weeks): 15.4% | PainVAS, mean of percent change from baseline ([5]; over 16 weeks): 21% | WOMAC Pain, mean of percent change from baseline ([5]; over 16 weeks): 14.2% | Daily consumption Paracetamol, Mean, AVR_PAR3 ([5]; visit 3): 2.0110 | Daily consumption Paracetamol, Mean, AVR_PAR4 ([5]; visit 4): 1.9038 | Daily consumption Paracetamol, Mean, AVR_PAR5 ([5]; visit 5): 1.9863 | Daily consumption Paracetamol, Mean, AVR_PAR6 ([5]; visit 6): 1.8846 | Daily consumption Paracetamol, Mean, AVR_PAR7 ([5]; visit 7): 1.3516 | PainVAS, mean change between baseline and completion (Mean ± SD) (symptomatic OA knees): −2.45 ± 2.23 | W_DIFF, mean change between baseline and completion (Mean ± SD) (symptomatic OA knees): −8.12 ± 10.89 | W_PAIN, mean change between baseline and completion (Mean ± SD) (symptomatic OA knees): −2.72 ± 3.26 | W_STIFF, mean change between baseline and completion (Mean ± SD) (symptomatic OA knees): −0.49 ± 1.61 | W_TOTAL, mean change between baseline and completion (Mean ± SD) (symptomatic OA knees): −11.33 ± 13.75

CCN(CCO)CCCC(C)Nc1ccnc2cc(Cl)ccc12 (stereo not drawn) [HCQS, Hydroxychloroquine]
efficacy in RA, individual group analysis [6]: several significant improvements

CC(=O)Oc1ccccc1C(=O)O [aspirin]
IC50 [7]: 20 µM

O=P1(N(CCCl)CCCl)NCCCO1 (stereo not drawn) [cyclophosphamide]
micronucleus induction / mutagenic effect (mouse bone marrow): significant increase in percent micronuclei: PCE ratio
